In patent US7635706B2, “5HT4-antagonistic 4-(aminomethyl)-piperidine benzamides” (Janssen Pharmaceutica NV, priority 2003, dated 2009):
pIC50: −log10 of the molar value. Where a name gives a salt, the structure may show the parent alone.

Key:
[1] = Metabolic stability in liver microsomes with NADPH-generating system, LC-MS analysis; assay type: in vitro ADME; conditions: compound 5 μM, active microsomes 1 mg/ml
Method: Sub-cellular tissue preparations were made according to Gorrod et al. (Xenobiotica 5: 453-462, 1975) by centrifugal separation after mechanical homogenization of tissue. Liver tissue was rinsed in ice-cold 0.1 M Tris-HCl (pH 7.4) buffer to wash excess blood. Tissue was then blotted dry, weighed and chopped coarsely using surgical scissors. The tissue pieces were homogenized in 3 volumes of ice-cold 0.1 M phosphate buffer (pH 7.4).
Tissue homogenates were centrifuged at 9000×g for 20 minutes at 4° C. The resulting supernatant was stored at −80° C. and is designated ‘S9’.
The S9 fraction can be further centrifuged at 100.000×g for 60 minutes (4° C.). The resulting supernatant was carefully aspirated, aliquoted and designated ‘cytosol’. The pellet was re-suspended in 0.1 M phosphate buffer (pH 7.4) in a final volume of 1 ml per 0.5 g original tissue weight and designated ‘microsomes’.
All sub-cellular fractions were aliquoted, immediately frozen in liquid nitrogen and stored at −80° C. until use.
For the samples to be tested, the incubation mixture contained PBS (0.1M), compound (5 μM), microsomes (1 mg/ml) and a NADPH-generating system (0.8 mM glucose-6-phosphate, 0.8 mM magnesium chloride and 0.8 Units of glucose-6-phosphate dehydrogenase). Control samples contained the same material but the microsomes were replaced by heat inactivated (10 minutes at 95 degrees Celsius) microsomes. Recovery of the compounds in the control samples was always 100%.
The mixtures were preincubated for 5 minutes at 37 degrees Celsius. The reaction was started at time point zero (t=0) by addition of 0.8 mM NADP and the samples were incubated for 60 minutes (P60). The reaction was terminated by the addition of 2 volumes of DMSO. Then the samples were centrifuged for 10 minutes at 900×g and the supernatants were stored at room temperature for no longer as 24 hours before analysis. All incubations were performed in duplo. Analysis of the supernatants was performed with LC-MS analysis. Elution of the samples was performed on a Xterra MS C18 (50×4.6 mm, 5 μm, Waters, US). An Alliance 2790 (Supplier: Waters, US) HPLC system was used. Elution was with buffer A (25 mM ammoniumacetate (pH 5.2) in H2O/acetonitrile (95/5)), solvent B being acetonitrile and solvent C methanol at a flow rate of 2.4 ml/min. The gradient employed was increasing the organic phase concentration from 0% over 50% B and 50% C in 5 min up to 100% B in 1 minute in a linear fashion and organic phase concentration was kept stationary for an additional 1.5 minutes. Total injection volume of the samples was 25 μl.
A Quatro triple quadrupole mass spectrometer fitted with and ESP source was used as detector. The source and the desolvation temperature were set at 120 and 350° C. respectively and nitrogen was used as nebuliser and drying gas. Data were acquired in positive scan mode (single ion reaction). Cone voltage was set at 10 V and the dwell time was 1 second.
Metabolic stability was expressed as % metabolism of the compound after 15 or 60 minutes (equation given as example) of incubation in the presence of active microsomes (E(act))

h5-HT4b = biological target: T1, h5-HT4b (Homo sapiens, UniProt Q13639); experiment: 5HT4 antagonism: [3H]GR113808 binding to membranes of h5-HT4b-HEK 293 clone 9 cells; conditions: [3H]GR113808 0.1 nM, h5-HT4b-HEK 293 membranes, 30 min at 25° C.
T1 construct: expressed in transfected cells; host or cells: HEK 293 (clone 9), membrane preparation
Method: h5-HT4b-HEK 293 clone 9 cells were cultured in 150 mm Petri dishes and washed twice with cold PBS. The cells were then scraped from the plates and suspended in 50 mM Tris-HCl buffer, pH 7.4 and harvested by centrifugation at 23,500 rpm for 10 minutes. The pellet was resuspended in 5 mM Tris-HCl, pH 7.4 and homogenized with an Ultra Turrax homogenizer. The membranes were collected by centrifugation at 30,000 rpm for 20 min, resuspended in 50 mM Tris-HCl pH 7.4 and stored at −80° C. For the experiment, assay mixtures (0.5 ml) contained 50 μl of the tritiated ligand (5-HT4 antagonist [^3H]GR113808 0.1 nM) and 0.4 ml membrane preparation (15 μg protein/ml). 50 μl of 10% DMSO was added for total binding. 50 μl of 1 μM of (+)-trans-(1-butyl-3-hydroxy4-piperidinyl)methyl 8-amino-7-chloro-2,3-dihydro-1,4-benzodioxin-5-carboxylate (a proprietary 5HT4 agonist of Janssen Pharmaceutica) was added for determination of non-specific binding.
The [^3H]GR113808 assay buffer was 50 mM HEPES-NaOH, pH 7.4. The mixtures were incubated for 30 min at 25° C. The incubation was terminated by filtration over a Unifilter 96 GF/B presoaked in 0.1% polyethylenimine, followed by six washing steps with 50 mM HEPES-NaOH, pH 7.4.

T1 sequence (Q13639 whole entry): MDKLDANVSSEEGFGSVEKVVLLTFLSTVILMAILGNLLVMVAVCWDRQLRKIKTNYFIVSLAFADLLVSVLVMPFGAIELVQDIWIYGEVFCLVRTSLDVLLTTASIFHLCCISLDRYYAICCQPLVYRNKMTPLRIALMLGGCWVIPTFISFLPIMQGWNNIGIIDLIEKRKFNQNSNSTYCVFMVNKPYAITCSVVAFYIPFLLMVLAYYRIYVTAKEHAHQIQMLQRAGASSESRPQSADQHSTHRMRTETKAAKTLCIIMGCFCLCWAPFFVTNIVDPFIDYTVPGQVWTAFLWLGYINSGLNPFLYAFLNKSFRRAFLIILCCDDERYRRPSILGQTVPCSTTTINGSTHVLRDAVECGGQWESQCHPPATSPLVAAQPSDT

pIC50 (h5-HT4b)	Compound	further results
	CNCCCCN1CC[C@@H](CNC(=O)c2ccc(C)c3c2OCCCO3)[C@H](O)C1 (as salt: salt) [compound 4]	melting point: 120 °C
	CCCCN1CC[C@@H](CNC(=O)c2cc(Cl)c(Br)c3c2OCCCO3)[C@H](O)C1 [Co. No. 22]	% metabolised compound ([1]; 60 minutes incubation): 51 (60″) %
	O=C(NC[C@@H]1CCN(CCCO)C[C@H]1O)c1cc(Cl)c(Br)c2c1OCCCO2 [Co. No. 24]	% metabolised compound ([1]; 15 minutes incubation): 4 (15″) %
	O=C(NC[C@@H]1CCN(CCC2OCCO2)C[C@H]1O)c1cc(Cl)c(Cl)c2c1OCCCO2 [Co. No. 88]	% metabolised compound ([1]; 15 minutes incubation): 10 (15″) %
	CCCCN1CC[C@@H](CNC(=O)c2cc(Cl)cc3c2OCCCO3)[C@H](O)C1 [WO-00/37461 Co. No. 119, reference compound]	% metabolised compound ([1]; 60 minutes incubation): 68 (60″) %
	O=C(NC[C@@H]1CCN(CCC2OCCO2)C[C@H]1O)c1cc(Cl)cc2c1OCCCO2 [WO-00/37461 Co. No. 143, reference compound]	% metabolised compound ([1]; 15 minutes incubation): 26.5 (15″) %
	O=C(NC[C@@H]1CCN(CCCO)C[C@H]1O)c1cc(Cl)cc2c1OCCCO2 [WO-00/37461 Co. No. 144, reference compound]	% metabolised compound ([1]; 15 minutes incubation): 5 (15″) %
8.88	CCCCN1CC[C@@H](CNC(=O)c2ccc(C)c3c2OCCCO3)[C@H](O)C1 [compound 1]	melting point: 127 °C
8.56	COCCCN1CC[C@@H](CNC(=O)c2ccc(C)c3c2OCCCO3)[C@H](O)C1 [compound 2]	melting point: 109 °C
8.76	CCCCN1CC[C@@H](CNC(=O)c2cc(Cl)c(OC)c3c2OCCO3)[C@H](O)C1 [compound 7]	melting point: 127 °C
8.91	CCCCN1CC[C@@H](CNC(=O)c2cc(Cl)c(Cl)c3c2OCCCO3)[C@H](O)C1 [compound 16]	melting point: 115 °C
8.61	Cc1ccc(C(=O)NC[C@@H]2CCN(CCCCNS(C)(=O)=O)C[C@H]2O)c2c1OCCCO2 [compound 107]	melting point: 124 °C
8.93	Cc1ccc(C(=O)NC[C@@H]2CCN(CCCC(N)=O)C[C@H]2O)c2c1OCCCO2 [compound 109]	melting point: 160 °C
8.51	COCCCN1CC[C@@H](CNC(=O)c2ccc(OC)c3c2OCCCO3)[C@H](O)C1 [compound 110]	
9.06	CCN1CC[C@@H](CNC(=O)c2ccc(C)c3c2OCCCO3)[C@H](O)C1 [compound 111]	
7.14	COc1ccc(C(=O)NC[C@@H]2CCN(CCCC#N)C[C@H]2OC)c2c1OCCCO2 [compound 112]	
8.49	COc1ccc(C(=O)NC[C@@H]2CCN(CCCO)C[C@H]2O)c2c1OCCCO2 [compound 113]	
8.58	CCCCN1CC[C@@H](CNC(=O)c2ccc(OC)c3c2OCCO3)[C@H](O)C1 [compound 114]	
7.93	COCCCN1CC[C@@H](CNC(=O)c2ccc(OC)c3c2OCCO3)[C@H](O)C1 [compound 115]	
8.28	COc1ccc(C(=O)NC[C@@H]2CCN(CCCO)C[C@H]2O)c2c1OCCO2 [compound 116]	
6.97	COc1ccc(C(=O)NC[C@@H]2CCNC[C@H]2O)c2c1OCCO2 [compound 117]	melting point: 160 °C
8.17	CNCCCCN1CC[C@@H](CNC(=O)c2ccc(OC)c3c2OCCO3)[C@H](O)C1 [compound 118]	
7.69	COc1ccc(C(=O)NC[C@@H]2CCN(CCCO)C[C@H]2OC)c2c1OCCO2 [compound 119]	
7.55	CCN1CC[C@@H](CNC(=O)c2ccc(OC)c3c2OCCCO3)[C@H](OC)C1 [compound 120]	
8.34	COc1ccc(C(=O)NC[C@@H]2CCN(CCCCO)C[C@H]2O)c2c1OCCCO2 [compound 121]	
8.39	COc1ccc(C(=O)NC[C@@H]2CCN(CCCCC(N)=O)C[C@H]2O)c2c1OCCCO2 [compound 122]	

pIC50 (h5-HT4b)	Compound	further results
7.96	CCCCN1CC[C@@H](CNC(=O)c2ccc(OC)c3c2OCCCO3)[C@H](OC)C1 [compound 123]	
7.61	COCCCN1CC[C@@H](CNC(=O)c2ccc(OC)c3c2OCCCO3)[C@H](OC)C1 [compound 124]	
8.49	COc1ccc(C(=O)NC[C@@H]2CCN(CCCCC(N)=O)C[C@H]2O)c2c1OCCO2 [compound 125]	
8.10	COc1ccc(C(=O)NC[C@@H]2CCN(CCCS(C)(=O)=O)C[C@H]2O)c2c1OCCCO2 [compound 126]	
7.86	COc1ccc(C(=O)NC[C@@H]2CCN(CCOCCO)C[C@H]2O)c2c1OCCCO2 [compound 127]	
8.14	COc1ccc(C(=O)NC[C@@H]2CCN(CCCC(N)=O)C[C@H]2O)c2c1OCCCO2 [compound 128]	
8.47	COCCCCN1CC[C@@H](CNC(=O)c2ccc(OC)c3c2OCCCO3)[C@H](O)C1 [compound 129]	
8.41	COc1ccc(C(=O)NC[C@@H]2CCN(CCCCNc3nccnc3C)C[C@H]2O)c2c1OCCCO2 [compound 130]	
9.00	CCCCN1CC[C@@H](CNC(=O)c2ccc(F)c3c2OCCCO3)[C@H](O)C1 [compound 131]	
8.65	COCCCN1CC[C@@H](CNC(=O)c2ccc(F)c3c2OCCCO3)[C@H](O)C1 [compound 132]	
7.95	COc1ccc(C(=O)NCC2(O)CCN(CCCC#N)CC2)c2c1OCCCO2 [compound 133]	
9.04	COc1ccc(C(=O)NC[C@@H]2CCN(CCCNS(C)(=O)=O)C[C@H]2OC)c2c1OCCCO2 [compound 134]	
6.74	COCCCCN1CCC(O)(CNC(=O)c2ccc(OC)c3c2OCCCO3)CC1 [compound 135]	
7.04	CCCCN1CCC(O)(CNC(=O)c2ccc(OC)c3c2OCCCO3)CC1 [compound 136]	
6.81	COc1ccc(C(=O)NC[C@H]2CCN(CCCC#N)C[C@H]2O)c2c1OCCCO2 [compound 137]	
8.21	COc1ccc(C(=O)NC[C@@H]2CCN(CCCC#N)C[C@H]2O)c2c1OCCO2 [compound 138]	
8.23	COc1ccc(C(=O)NC[C@@H]2CCN(CCCC(N)=O)C[C@H]2O)c2c1OCCO2 [compound 139]	
7.47	COc1ccc(C(=O)NC[C@@H]2CCN(CCCC(N)=O)C[C@H]2OC)c2c1OCCO2 [compound 140]	melting point: 180 °C
6.67	CCCCN1CC[C@H](CNC(=O)c2ccc(OC)c3c2OCCCO3)[C@H](O)C1 [compound 141]	
6.79	COCCCCN1CC[C@H](CNC(=O)c2ccc(OC)c3c2OCCCO3)[C@H](O)C1 [compound 142]	
8.93	O=C(NC[C@@H]1CCN(CCCCO)C[C@H]1O)c1ccc(F)c2c1OCCCO2 [compound 143]	
6.55	COc1ccc(C(=O)NC[C@H]2CCN(CCCC(N)=O)C[C@H]2O)c2c1OCCCO2 [compound 144]	
8.06	CCOc1ccc(C(=O)NC[C@@H]2CCN(CCCC#N)C[C@H]2O)c2c1OCCCO2 [compound 145]	melting point: 131 °C
8.23	CCOc1ccc(C(=O)NC[C@@H]2CCN(CCCC(N)=O)C[C@H]2O)c2c1OCCCO2 [compound 146]	
6.30	COc1ccc(C(=O)NCC2(O)CCN(CCCC(N)=O)CC2)c2c1OCCCO2 [compound 147]	
